In patent publication US12630534B2 (TAKEDA PHARMACEUTICAL COMPANY LIMITED, priority 2020, dated 2026):

Target: T1, human GPR139 (Homo sapiens, UniProt Q6DWJ6)
T1 construct: expressed in transfected cells; host or cells: CHO-TREx (Life Technologies) cells, expression induced with doxycycline
T1 sequence (Q6DWJ6 1-353): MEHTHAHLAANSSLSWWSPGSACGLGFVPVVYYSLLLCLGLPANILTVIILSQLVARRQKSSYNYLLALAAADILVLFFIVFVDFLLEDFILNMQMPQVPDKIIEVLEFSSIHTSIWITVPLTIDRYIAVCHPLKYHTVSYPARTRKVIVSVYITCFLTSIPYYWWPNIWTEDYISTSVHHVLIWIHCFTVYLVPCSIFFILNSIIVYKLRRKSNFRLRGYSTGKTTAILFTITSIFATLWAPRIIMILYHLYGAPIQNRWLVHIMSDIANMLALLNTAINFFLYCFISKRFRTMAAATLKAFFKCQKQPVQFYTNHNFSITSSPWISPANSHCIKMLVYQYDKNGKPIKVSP
Assay: Inhibition rate of the amount of IP1 in GPR139-expressed CHO cells (inverse agonist assay, Test Example 2)
Format: cell-based
Details: relative value, inhibition rate of Example Compound 2 in Test Example 1 defined as 100%; for inhibition at 30 µM: CHO
Procedure, shortened: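 IP1 accumulation read by IP-One HTRF after 40 min compound exposure at 37° C in stimulation buffer, 2000 cells/well, GPR139 expression induced the day before with doxycycline. Results given as relative inhibition rate, normalised to a reference compound set at […].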

Row | inhibition at 30 µM [%] | Inhibition Rate at 30 μM (30 µM) [%] | SMILES
1 | 100 |  | CCn1cc(Cn2c(C)c(C)n(-c3cc(N4CCOC(F)(F)C4)cc(C(F)(F)F)c3F)c2=O)cn1 [Example 70, 1-[5-(2,2-difluoromorpholin-4-yl)-2-fluoro-3-(trifluoromethyl)phenyl]-3-[(1-ethyl-1H-pyrazol-4-yl)methyl]-4,5-dimethyl-1,3-dihydro-2H-imidazol-2-one]
2 | 102 |  | CCn1cc(Cn2cc(C)n(-c3cc(OCC4CC(F)(F)C4)cc(C(F)(F)F)c3)c2=O)cn1 [Example 7, 3-{3-[(3,3-difluorocyclobutyl)methoxy]-5-(trifluoromethyl)phenyl}-1-[(1-ethyl-1H-pyrazol-4-yl)methyl]-4-methyl-1,3-dihydro-2H-imidazol-2-one]
3 | 98 |  | CCn1cc(Cn2cc(C)n(-c3nc(N4CCOC(C)(C)C4)cc(C(F)(F)F)n3)c2=O)cn1 [Example 134, 3-[4-(2,2-Dimethylmorpholine-4-yl)-6-(trifluoromethyl)pyrimidine-2-yl]-1-[(1-ethyl-H-pyrazole-4-yl)methyl]-4-methyl-1,3-dihydro-2H-imidazole-2-one]
4 | 99 |  | CCn1cc(Cn2cc(C)n(-c3cc(N4CCOC(C(F)F)C4)cc(C(F)(F)F)c3)c2=O)cn1 (centres unmarked) [Example 20, 3-{3-[2-(difluoromethyl)morpholin-4-yl]-5-(trifluoromethyl)phenyl}-1-[(1-ethyl-1H-pyrazol-4-yl)methyl]-4-methyl-1,3-dihydro-2H-imidazol-2-one]
5 | 99 |  | CCn1cc(Cn2ccn(-c3cc(N4CCC(F)(F)C4)cc(C(F)(F)F)c3F)c2=O)cn1 [Example 39, 1-[5-(3,3-difluoropyrrolidin-1-yl)-2-fluoro-3-(trifluoromethyl)phenyl]-3-[(1-ethyl-1H-pyrazol-4-yl)methyl]-1,3-dihydro-2H-imidazol-2-one]
6 | 101 |  | CCn1cc(Cn2c(C)cn(-c3cc(N4CCO[C@H](C)C4)cc(C(F)(F)F)c3Cl)c2=O)cn1 [Example 57, 1-{2-chloro-5-[(2R)-2-methylmorpholin-4-yl]-3-(trifluoromethyl)phenyl}-3-[(1-ethyl-1H-pyrazol-4-yl)methyl]-4-methyl-1,3-dihydro-2H-imidazol-2-one]
7 | 100 |  | CCn1cc(Cn2c(C)cn(-c3cc(N4CCO[C@H](C)C4)cc(C(F)(F)F)c3F)c2=O)cn1 [Example 25, 3-[(1-ethyl-1H-pyrazol-4-yl)methyl]-1-{2-fluoro-5-[(2R)-2-methylmorpholin-4-yl]-3-(trifluoromethyl)phenyl}-4-methyl-1,3-dihydro-2H-imidazol-2-one]
8 | 102 |  | Cc1cn(Cc2cnn(C(C)C)c2)c(=O)n1-c1nc(N2CCOC(C)(C)C2)cc(C(F)(F)F)n1 [Example 135, 3-[4-(2,2-dimethylmorpholin-4-yl)-6-(trifluoromethyl)pyrimidin-2-yl]-4-methyl-1-{[1-(propan-2-yl)-1H-pyrazol-4-yl]methyl}-1,3-dihydro-2H-imidazol-2-one]
9 | 103 |  | CCn1cc(Cn2cc(C)n(-c3cc(OCC(F)(F)F)cc(N4CCO[C@H](C)C4)n3)c2=O)cn1 [Example 105, 1-[(1-ethyl-1H-pyrazol-4-yl)methyl]-4-methyl-3-{6-[(2R)-2-methylmorpholin-4-yl]-4-(2,2,2-trifluoroethoxy)pyridin-2-yl}-1,3-dihydro-2H-imidazol-2-one]
10 | 101 |  | CCn1cc(Cn2c(C)c(C)n(-c3cc(OCC(F)(F)F)cc(N4CCO[C@H](C)C4)c3)c2=O)cn1 [Example 47, 1-[(1-ethyl-1H-pyrazol-4-yl)methyl]-4,5-dimethyl-3-{3-[(2R)-2-methylmorpholin-4-yl]-5-(2,2,2-trifluoroethoxy)phenyl}-1,3-dihydro-2H-imidazol-2-one]
11 | 99 |  | CCn1cc(Cn2cc(C)n(-c3cc(-n4cnc(C)c4)cc(C(F)(F)F)c3)c2=O)cn1 [Example 21, 1-[(1-ethyl-1H-pyrazol-4-yl)methyl]-4-methyl-3-[3-(4-methyl-1H-imidazol-1-yl)-5-(trifluoromethyl)phenyl]-1,3-dihydro-2H-imidazol-2-one]
12 | 101 |  | CCn1cc(Cn2cc(C)n(-c3cc(N4CCOC(F)(F)C4)cc(C(F)(F)F)c3)c2=O)cn1 [Example 41, 3-[3-(2,2-difluoromorpholin-4-yl)-5-(trifluoromethyl)phenyl]-1-[(1-ethyl-1H-pyrazol-4-yl)methyl]-4-methyl-1,3-dihydro-2H-imidazol-2-one]
13 | 100 |  | CCc1nn(-c2cc(N3CCC(F)(F)CC3)cc(C(F)(F)F)c2F)c(=O)n1Cc1cnn(CC)c1 [Example 138, 2-[5-(4,4-difluoropiperidin-1-yl)-2-fluoro-3-(trifluoromethyl)phenyl]-5-ethyl-4-[(1-ethyl-1H-pyrazol-4-yl)methyl]-2,4-dihydro-3H-1,2,4-triazol-3-one]
14 | 102 |  | CCn1cc(Cn2c(C)nn(-c3cc(N4CCC(F)(F)CC4)cc(C(F)(F)F)c3F)c2=O)cn1 [Example 97, 2-[5-(4,4-difluoropiperidin-1-yl)-2-fluoro-3-(trifluoromethyl)phenyl]-4-[(1-ethyl-1H-pyrazol-4-yl)methyl]-5-methyl-2,4-dihydro-3H-1,2,4-triazol-3-one]
15 | 101 |  | CCn1cc(Cn2c(C)cn(-c3cc(N4CCO[C@H](C)C4)cc(OCC(F)(F)F)c3F)c2=O)cn1 [Example 55, 3-[(1-ethyl-1H-pyrazol-4-yl)methyl]-1-{2-fluoro-5-[(2R)-2-methylmorpholin-4-yl]-3-(2,2,2-trifluoroethoxy)phenyl}-4-methyl-1,3-dihydro-2H-imidazol-2-one]
16 | 98 |  | CCn1cc(Cn2c(C)cn(-c3cc(N4CCOC(C)(C)C4)cc(Cl)c3F)c2=O)cn1 [Example 166, 1-[3-chloro-5-(2,2-dimethylmorpholin-4-yl)-2-fluorophenyl]-3-[(1-ethyl-1H-pyrazol-4-yl)methyl]-4-methyl-1,3-dihydro-2H-imidazol-2-one]
17 | 99 |  | CCn1cc(Cn2ccn(-c3cc(N4CCCC(F)(F)C4)cc(C(F)(F)F)c3F)c2=O)cn1 [Example 37, 1-[5-(3,3-difluoropiperidin-1-yl)-2-fluoro-3-(trifluoromethyl)phenyl]-3-[(1-ethyl-1H-pyrazol-4-yl)methyl]-1,3-dihydro-2H-imidazol-2-one]
18 |  | 101 | CCn1cc(Cn2ccn(-c3cc(-c4ccc(F)cc4)cc(C4CC4(F)F)c3F)c2=O)cn1 (centres unmarked) [Example 144, 1-[5-(2,2-difluorocyclopropyl)-4,4′-difluoro[1,1′-biphenyl]-3-yl]-3-[(1-ethyl-1H-pyrazol-4-yl)methyl]-1,3-dihydro-2H-imidazol-2-one]
19 | 98 |  | CCn1cc(Cn2c(C)cn(-c3cc(N4CCO[C@H](C)C4)cc(C4CC4)c3F)c2=O)cn1 [Example 140, 1-{3-cyclopropyl-2-fluoro-5-[(2R)-2-methylmorpholin-4-yl]phenyl}-3-[(1-ethyl-1H-pyrazol-4-yl)methyl]-4-methyl-1,3-dihydro-2H-imidazol-2-one]
20 | 100 |  | CCn1cc(Cn2c(C)c(C)n(-c3cc(OCC(F)F)cc(N4CCO[C@H](C)C4)c3)c2=O)cn1 [Example 46, 1-{3-(2,2-difluoroethoxy)-5-[(2R)-2-methylmorpholin-4-yl]phenyl}-3-[(1-ethyl-1H-pyrazol-4-yl)methyl]-4,5-dimethyl-1,3-dihydro-2H-imidazol-2-one]
21 | 99 |  | CCn1cc(Cn2cnn(-c3cc(N4CCO[C@H](C)C4)cc(C(F)(F)F)c3F)c2=O)cn1 [Example 27, 4-[(1-ethyl-1H-pyrazol-4-yl)methyl]-2-{2-fluoro-5-[(2R)-2-methylmorpholin-4-yl]-3-(trifluoromethyl)phenyl}-2,4-dihydro-3H-1,2,4-triazol-3-one]
22 | 101 |  | CCn1cc(Cn2c(C)cn(-c3nc(N4CCO[C@H](C)C4)cc(C(F)(F)F)c3C)c2=O)cn1 [Example 45, 3-[(1-ethyl-1H-pyrazol-4-yl)methyl]-4-methyl-1-{3-methyl-6-[(2R)-2-methylmorpholin-4-yl]-4-(trifluoromethyl)pyridin-2-yl}-1,3-dihydro-2H-imidazol-2-one]
23 | 98 |  | CCn1cc(Cn2c(C)cn(-c3cc(N4CCO[C@H](C)C4)cc(Cl)c3F)c2=O)cn1 [Example 139, 1-{3-chloro-2-fluoro-5-[(2R)-2-methylmorpholin-4-yl]phenyl}-3-[(1-ethyl-1H-pyrazol-4-yl)methyl]-4-methyl-1,3-dihydro-2H-imidazol-2-one]
24 | 98 |  | CCn1cc(Cn2cc(C)n(-c3cc(OCC(F)F)cc(N4CCO[C@H](C)C4)c3)c2=O)cn1 [Example 71, 3-{3-(2,2-difluoroethoxy)-5-[(2R)-2-methylmorpholin-4-yl]phenyl}-1-[(1-ethyl-1H-pyrazol-4-yl)methyl]-4-methyl-1,3-dihydro-2H-imidazol-2-one]
25 | 100 |  | Cc1cn(-c2cc(C(F)(F)F)cc(N3CCO[C@H](C)C3)n2)c(=O)n1Cc1cnn(C(C)C)c1 [Example 129, 4-methyl-1-{6-[(2R)-2-methylmorpholin-4-yl]-4-(trifluoromethyl)pyridin-2-yl}-3-{[1-(propan-2-yl)-1H-pyrazol-4-yl]methyl}-1,3-dihydro-2H-imidazol-2-one]
26 | 99 |  | CCn1cc(Cn2cc(C)n(-c3cc(N4CCO[C@@H](C)C4)cc(C(F)(F)F)c3)c2=O)cn1 [Example 28, 1-[(1-ethyl-1H-pyrazol-4-yl)methyl]-4-methyl-3-{3-[(2S)-2-methylmorpholin-4-yl]-5-(trifluoromethyl)phenyl}-1,3-dihydro-2H-imidazol-2-one]
